Reference: US8541167B2 (priority 2004, dated 2013)

Legend:
[1] = tested on: ectromelia virus; set-up: species or system Mice; details: mouse, in vivo, ip, 12.5 mg/kg/day
[2] = tested on: ECTV; set-up: species or system A/NCr mice; details: mouse, in vivo
[3] = tested on: vaccinia, ectromelia or cowpox; details: mouse, in vivo; cited from earlier work

Nc1ccn(C[C@@H](CO)OCP(=O)(O)O)c(=O)n1 [Cidofovir]
effect of cidofovir during vaccination on level of protection from lethal disease [1]: did not affect the level of protection | protection from death afforded by vaccination in presence vs absence of CDV [2]: no difference observed | efficacy in protecting mice from a lethal dose [3]: high efficacy
